Structures can show the parent of a compound that is named as a salt.
Key:
Format in all cases: biochemical
human thrombin = target: T1, human thrombin (Homo sapiens, UniProt P00734); assay: Inhibition of thrombin (fibrin formation from fibrinogen, 405 nm); conditions: human thrombin 0.7 nM, fibrinogen substrate, 20° C., compared with control without product; read-out: concentration inhibiting the enzymatic activity of thrombin by 50% (IC50)
T1 construct: purchased Sigma
Protocol: For in vitro evaluation of the inhibitory activity of the products of the invention on human thrombin (Sigma, specific activity 3230 NIH units/mg), purified human fibrinogen ([…], Stago) (Fg) was added to a given amount of thrombin (0.7 nM) that had previously been incubated with or without the inhibitor to be tested (20° C., 10 minutes).
Inhibitors, enzymes and substrates are diluted in the same buffer (0.01 mM phosphate buffer, pH 7.4, containing 0.12M sodium chloride and 0.05% bovine serum albumin) and then distributed in a polystyrene microtitre plate in a volume of 50 μl.
The fibrin formed by the thrombin or by the paranitroanilide released by the action of the serine protease is measured spectrophotometrically at 405 nm after from 15 to 30 minutes' reaction at 20° C.

[1] = system: human plasma samples (activated cephalin time); assay: Anti-coagulant activity, activated cephalin time (ACT) in human plasma; conditions: concentration that doubles the activated cephalin time, 37° C.
Protocol: (§1) In order to evaluate the anti-coagulant activity of the compounds of the invention, the thrombin time (TT) and the activated cephalin time (ACT) were determined in human plasma samples. An ST4 coagulometer was used. A plasma deficient in platelets is lyophilised and taken up in distilled water. The TT is obtained using the reagent Thrombine Prest and the ACT is obtained using the reagent Céphaline PTT Automate. Inhibitor or solvent (10 μl) is added to the plasma (90 μl), which is then incubated for 2 minutes at 37° C. 100 μl of Thrombine Prest (TT) or of Céphaline PTT Automate (ACT) are added and at the same time the timer is started.
(§2) Under those conditions, the TT is of the order of 18 seconds and the ACT of the order of 12 seconds. The activity of an antagonist is evaluated by its capacity to prolong the TT and the ACT relative to the control. The effect of the inhibitors is expressed by the concentration in μM that doubles the coagulation time (Ctt2).

[2] = system: human plasma samples (thrombin time); assay: Anti-coagulant activity, thrombin time (TT) in human plasma; conditions: concentration that doubles the thrombin time, 37° C.
Protocol: as §1, §2

IC50 (human thrombin)	SMILES	ACT Ctt2 [1]	TT Ctt2 [2]
0.012 µM	O=C(NCc1ccccc1OCC1=NCCN1)[C@@H]1CCc2cnc(NCCc3ccccn3)c(=O)n21 [Example 15, (6S)-N-[2-(4,5-dihydro-1H-imidazol-2-ylmethoxy)benzyl]4-oxo-3-{[2-(2-pyridyl)ethyl]amino}-4,6,7,8-tetrahydropyrrolo[1,2-a]-pyrazine-6-carboxamide]	1.91 µM	0.19 µM
0.022 µM	O=C(NCc1ccc2cc[nH]c2c1)[C@@H]1CCc2cnc(NCCc3ccccn3)c(=O)n21 [Example 18, (6S)-N-[1H-indol-6-ylmethyl)-4-oxo-3-{[2-(2-pyridyl)ethyl]amino}-4,6,7,8-tetrahydropyrrolo[1,2-a]pyrazine-6-carboxamide]	3.07 µM	0.28 µM
0.136 µM	O=C(NCc1ccccc1OCc1ccccn1)[C@@H]1CCc2cnc(NCCc3ccccn3)c(=O)n21 [Example 10, (6S)-4-oxo-3-{[2-(2-pyridyl)ethyl]amino}-N-[2-(2-pyridylmethoxy)-benzyl]-4,6,7,8-tetrahydropyrrolo[1,2-a]pyrazine-6-carboxamide]	–	–
0.004 µM	N=C(N)NOCCNC(=O)[C@@H]1CCc2cnc(NCC(c3ccccc3)c3ccccc3)c(=O)n21 [Example 3, (6S)-N-[2-({[amino(imino)methyl]amino}oxy)ethyl]-3-[(2,2-diphenyl-ethyl)amino]-4-oxo4,6,7,8-tetrahydropyrrolo[1,2-a]pyrazine-6-carboxamide dihydrochloride]	–	–
0.31 µM	NC(=NO)c1ccc(CNC(=O)[C@@H]2CCc3cnc(NCCc4ccccn4)c(=O)n32)cc1 [Example 2, (6S)-N-{4-[amino(hydroxyimino)methyl]benzyl}-4-oxo-3-{(2-(2-pyridyl)ethyl]amino}-4,6,7,8-tetrahydropyrrolo[1,2-a]pyrazine-6-carboxamide]	20 µM	3.6 µM
0.14 µM	Nc1noc2cc(CNC(=O)[C@@H]3CCc4cnc(NCCc5ccccn5)c(=O)n43)ccc12 [Example 17]	–	–
0.141 µM	NC(=NO)c1ccc(CNC(=O)[C@@H]2CCc3cnc(NCC(c4ccccc4)c4ccccc4)c(=O)n32)cc1 [Example 1, (6S)-N-{4-[amino(hydroxyimino)methyl]benzyl}-3-[(2,2-diphenyl-ethyl)amino]-4-oxo4,6,7,8-tetrahydropyrrolo[1,2-a]pyrazine-6-carboxamide]	–	–

— patent publication US6686358B2, “Bicyclic amino-pyrazinone compounds” (Les Laboratoires Servier, priority 2000, dated 2004)
